Measured values published in a melting point compilation (Tetko et al.; mined from patent text by program, amines drawn as free bases though some values may be those of a salt).

SMILES	melting point
C[C@@H](n1ncn(-c2ccc(-n3cncn3)cc2)c1=O)[C@](O)(Cn1cncn1)c1ccc(F)cc1F	182 to 184 °C
CC(C)(C)N1CCCC1=C(C#N)c1ccc(Cl)cc1	150 to 153 °C
COCc1ccc(O)cc1	79 to 80 °C
O=C1C(=O)N(CCl)c2ccccc21	121 to 123 °C
CN(C)c1cccc(-n2c(=O)c(CCCc3ccncc3)cc3cccnc32)c1	124 to 127 °C
CC1(O)OC(=O)C(c2c(F)cc(F)cc2F)=C1c1cccs1 (centres undefined)	134 to 136 °C
COC(=O)C(C)(C)Cc1c(SC(C)(C)C)c2cc(OCc3cnccn3)ccc2n1Cc1ccc(Cl)cc1	141 to 142 °C
O=C(O)c1ccc(S(=O)(=O)n2cccc2)s1	191 to 194 °C
CCN(CC)C(=O)c1cc(-c2ccccc2)c(=O)[nH]c1-c1c(Cl)cccc1C#N	237 to 240 °C
C=C1CCCN(Cc2ccc(OC)cc2)C1=O	145 to 155 °C
OCc1cc(COc2ccc(Cl)cc2Cl)cc(OCc2ccccc2)c1	85 to 88 °C
NC(=O)c1cc2[nH]c3ccccc3c(=O)n2n1	315 to 325 °C
CCCc1c2c(cc3[nH]c(=O)c(=O)oc13)CCCC2	175 to 180 °C
Cc1ccc2nc(-c3cc(C(F)F)nn3-c3ccc(S(C)(=O)=O)cc3)sc2c1	183 to 184 °C
COc1ccc2cc(-c3ccc(-n4nc(C)c(C)n4)c(Cl)c3)c(=O)oc2c1	170 °C
O=C(O)c1cc(/C=C/c2ccc(O)cc2)ccc1O	241 to 243 °C
COc1cc(CCCCC2OC(=O)NC2=O)ccc1OCc1coc(/C=C/c2ccccc2)n1 (centres undefined)	171 to 172 °C
Cc1cc2c(cc1C(F)(F)F)NC(=O)CC(c1cccc(-c3ccnc(CN(C)CC(C)C)c3)c1)=N2	188 °C
N#Cc1cccc2c1CC(=NN)c1cc(F)ccc1S2	220 to 222 °C
COCCOc1ccc(C=O)c(OCc2ccccc2)c1	67.5 to 68 °C
CC1C(=O)N(c2cccc(F)c2)C(=S)N1c1ccc(Oc2ccccc2)cc1 (centres undefined)	116 °C
CCNc1nc(NC(C)C)cc(NS(=O)(=O)c2ccc(N)cc2)n1	258 to 259 °C
CCOc1nc(O)cc(CCl)n1	159 to 161 °C
CCCCC(Cc1ccc(OCCNC(=O)c2ccc(-c3cccc(C(=O)O)c3)cc2)cc1)C(=O)O (centres undefined)	142 to 143 °C
O=C1c2ccccc2-c2c1c1ccccc1c(=O)n2CCCCCCCNS(=O)(=O)c1ccc(Br)cc1	160 to 161 °C

SMILES	melting point
CCN(CC)CCOc1ccc(Nc2ncc3c(n2)N(C)C(=O)N(C(C)C)C3)cc1	154 °C
Cc1noc2cc3c(cc12)C1(CO3)C(=O)N(CC2CCCO2)c2ccccc21 (centres undefined)	134 to 135 °C
CC(C)(C)OC(=O)N1C[C@@H](P(C2CCCCC2)C2CCCCC2)C[C@H]1CP(c1ccccc1)c1ccccc1	171 to 174 °C
O=C(O)c1c(C(O)=S)cc([N+](=O)[O-])cc1-c1ccccc1	182 to 184 °C
O=C(O)c1cccc(C(=O)C=Cc2ccc(OCc3ccccc3)cc2)c1O	174 to 175 °C
CC(=O)c1cccc(NC(=O)C(C)(C)C)c1	130 to 133 °C
O=[N+]([O-])c1cccc(-c2nc(O)cc3cccnc23)c1	262 to 265 °C
O=c1ccc(-c2ccc(-n3cnc4c3CCCC4)cc2)n[nH]1	266 to 267 °C
CS(=O)(=O)c1ccc(-c2cnn(Cc3ccc(F)cc3F)c(=O)c2-c2ccc(F)cc2)cc1	179 to 182 °C
Clc1cc(Nc2ccc(N3CCOCC3)cc2)ncn1	165 to 166 °C
CC(C)(C)OC(=O)NCCCCCn1c(=O)c2cccc3ncc(c1=O)n32	82 to 83 °C
Nc1ncnc2c1ncn2[C@H]1C=C[C@@H](O)C1 (racemic)	180 °C
O=C(CCSCCC(=O)Nc1ccc(Nc2ccccc2)cc1)Nc1ccc(Nc2ccccc2)cc1	199 to 203 °C
O=C(O)C1(c2ccc3c(c2)OCO3)CC(F)(F)C1(F)F (centres undefined)	168 to 169 °C
CCNc1nc2ccc(CCc3cn4c(n3)CC(C)CC4)cc2o1 (centres undefined)	159 to 161 °C
COC(=O)c1ccc(NC(=O)N(C)C)cc1	169 to 170 °C
NC(=S)c1ccccc1-c1ccccc1	213 °C
Nc1ccccc1-c1n[nH]c(=S)n1N	191 to 192 °C
COc1ccc(C=C2SCCS2)cc1OC	74 to 75 °C
Oc1ccc(-c2nc(-c3ccc(O)cc3O)nc(-c3cccn3Cc3ccccc3)n2)c(O)c1	> 275 °C
Cc1cnc(-c2ccc(Cl)s2)nc1Cl	137 °C
CCOC(=O)Cn1cnc2ccccc21	63 to 64 °C
CCNC(=O)c1nc2n(n1)-c1ccc(Cl)cc1C(c1ccccc1F)=NC2	232 to 234 °C
Cn1c(=O)oc2cc3c(cc21)OCC31C(=O)N(Cc2ccc(C(F)(F)F)o2)c2ccccc21 (centres undefined)	198 to 199 °C
CC(=O)OCCCn1nc(-c2cc(C(C)(C)C)c(O)c(C(C)(C)C)c2)c2cccnc21	75 to 77 °C

SMILES	melting point
O=C(O)CCNC(=O)C(=Cc1cc(F)cc(F)c1)CS	125 °C
CCOC(=O)Cc1cccc(N)n1	66 to 68 °C
CCCCc1nc2ccccn2c(=O)c1-c1ccc(N2CCN(C(=O)OC(C)(C)C)CC2)nc1	126 to 128 °C
N#CC(N=C(c1ccccc1)c1ccccc1)c1ncc(C(F)(F)F)cc1Cl (centres undefined)	105 to 108 °C
Fc1ccc(-c2nccc(Oc3cccc(C(F)(F)F)c3)n2)cc1	52 °C
O=c1c2ccccc2sn1CCN1CCN(c2ccccc2)CC1	115 to 117 °C
CCCCNC(=O)Cc1ccc2c(c1)c(Cc1ccc(C(=O)NS(=O)(=O)c3ccccc3C)cc1OC)cn2C	108 to 110 °C
Cc1cccc2c1nc(COc1ccc(Cl)cc1)n2CCC(C)C(=O)N1CCCC1 (racemic)	140 to 142 °C
CCc1nc2cnc3ccccc3c2n1CC(C)C	72 to 73.5 °C
O=[N+]([O-])c1cccc(F)c1CCO	42 to 44 °C
C#CCn1c(=O)c2cc(Cl)ccc2c2ccc(Cl)cc21	248 to 250 °C
CCOC(=O)c1ccc(C(Cc2ccc(F)cc2)C(=O)Nc2nc3ccccc3o2)cc1 (centres undefined)	122 to 125 °C
CN(C)C=NS(=O)(=O)c1cc(CCNC(=O)C(F)(F)F)ccc1OCCOC(F)(F)F	111 to 114 °C
CCOC(=O)c1ccc(/C=C(\C)c2ccc3c(c2)CCC(C)(C)CS3)cc1	96 to 97 °C
O=C(Cc1ccccc1)c1cccc(OCc2ccccc2)c1	58 to 60 °C
O=C(c1ccc(F)cc1)C1(c2ccccc2)CCN(Cc2ccccc2)CC1	148 °C
COC(=O)c1nn(-c2cccnc2)cc1N	102 to 108 °C
O=c1[nH][nH]c(=O)n1-c1ccc(Cl)cc1	234 to 236 °C
Cc1ccc2c(c1)C=Cc1cc(C)ccc1C2c1cn(-c2ccnc(NCC(=O)Nc3nc(CC(=O)O)cs3)n2)c(=O)[nH]c1=O	223 °C
COc1cc(NS(=O)(=O)c2ccc3c(ccn3C)c2)cc(OC)c1OC	188 to 189 °C
CCOC(=O)c1ccc2c(c1)S(=O)c1ccccc1-2 (centres undefined)	210 to 213 °C
Cc1noc2cc3c(cc12)C1(CO3)C(=O)N(Cc2ncccc2C(F)(F)F)c2ccccc21 (centres undefined)	221 to 222 °C
NC(=O)c1nn(S(=O)(=O)c2ccccc2)c2ccccc12	208 to 210 °C
CC(=Cc1ncon1)c1ccc(Cl)cc1	56 to 57 °C
O=[N+]([O-])c1cc(CO)cc([N+](=O)[O-])c1	89 °C

SMILES	melting point
Cc1cc(Br)cc2ccc(Cl)nc12	114 to 116 °C
CC(=O)NS(=O)(=O)c1ccc(N2CCN(CC[C@@H]3OCCc4ccccc43)CC2)cc1	160 to 161 °C
N=C(NCc1ccccc1)NN=Cc1ccc(Cl)cc1Cl	139 to 141 °C
N#CC(C=O)c1ccccc1 (centres undefined)	161 to 163 °C
Cc1c(CCC2CC(O)CC(=O)O2)c2c(c(C)c1OC(=O)c1ccccc1)CC(C)(C)O2 (centres undefined)	188 to 190 °C
CC/C=C(\C)CNc1cccc(-c2ccnc3c(C(=O)c4cccs4)cnn23)c1	132 to 133 °C
CCCN(Cc1ccc(-c2ccccc2-c2nc(=O)s[nH]2)cc1)c1nc2ccccc2cc1C(=O)OCC	124 to 125 °C
CC(=O)Nc1cccc(C(=O)c2[nH]c3cc(Cl)ccc3c2NC(C)=O)c1	225 to 228 °C
CCC12CCC(=O)C=C1c1c(cc(OCC(=O)O)c(Cl)c1Cl)C2 (centres undefined)	237 to 238 °C
CCCCc1cc2cc(NS(C)(=O)=O)ccn2c1C(=O)c1ccc(OCCCN(CCCC)CCCC)cc1	87 to 88 °C
Cc1nc(NC(=O)c2cnn3c(C(F)(F)F)cc(-c4ccc(Cl)c(Cl)c4)nc23)sc1S(=O)(=O)NC(C)(C)CO	265 °C
O=C(c1sc(Nc2ccccc2)c2c1CCc1cnoc1-2)N1CCOCC1	177 to 178 °C
O=C(O)COc1ccc(C(=NO)c2cccs2)c2ccccc12	215 °C
CC(=O)Nc1c([N+](=O)[O-])cc([N+](=O)[O-])c2c1CCCC2	203 °C
O=C(O)CC1ON(C(=O)OCc2ccccc2)C(=O)C1N1C(=O)c2ccccc2C1=O (centres undefined)	160 to 162 °C
Cc1ccc2c(c1)C=Cc1cc(C)ccc1C2c1cn(Cc2ccc(C(=O)Nc3nc(CC(=O)O)cs3)o2)c(=O)[nH]c1=S	210 °C
Cc1cccc(C(=O)NCc2cccc3c2C(=O)N(C2CCC(=O)NC2=O)C3=O)n1 (centres undefined)	197 to 199 °C
CC(C)(CNc1ccnc2cc(Cl)ccc12)NCc1cccc(Cl)c1	125 to 126 °C
Cc1c(C#N)sc2nc(-c3ccccc3)nc(N3CCN(C)CC3)c12	223 to 225 °C
O=C(O)c1cccc2c1NCCC2C(=O)O (centres undefined)	215 to 216 °C
COc1ccc2[nH]c(S(=O)Cc3cc(N4CCOCC4)c(F)cn3)nc2c1 (centres undefined)	109 to 111 °C
Cc1nn(-c2ccccc2)c(O)c1-c1c(C)nn(-c2ccccc2)c1O	> 280 °C
Cc1cc(C)c(Nc2nc(C)ccc2S(=O)(=O)c2ccc(OCc3csc(C)n3)cc2)c(C)c1	200 to 201 °C
CCOC(=O)C(CC)Oc1ccc(-c2coc3cc4c(cc3c2=O)OCO4)cc1 (centres undefined)	119 to 121 °C
